Here are results for 20 compounds from patent publication US20080194024A1, “Culture of Non-Embryonic Cells at High Cell Density” (priority 2005, published 2008).

Read-outs that look alike come from different tables or passages of the source. Bounds are passed on as bounds.

One assay relates to GSK-3. Particulars: study cited did not specify which isoform(s) was tested; value marked a: L. Meijer et al., unpublished; read-out: IC50 GSK-α and GSK-3β, isoform not specified; cited from earlier work.
The test system of a further assay is CDK1-cyclin B complex. Particulars: cited from earlier work; for IC50: values marked a: L. Meijer et al., unpublished.
For another assay, the system named is CDK2 and CDK5. To be noted: printed in the CDK1-cyclin B column with note (CDK2 and CDK5); cited from earlier work.
The test system of assay [1] is Murine MAPCs. Briefly: MAPC culture with BIO, morphology (clustering). It is filed as cell-based, mouse. Particulars: 0.1-2 microM BIO; from 4 days after treatment; at both cell densities.
The subject of assay [2] is Murine MAPCs. Briefly: Quantitative RT-PCR of MAPCs treated with BIO. Type of assay: cell-based, mouse.
The test system of assay [3] is Murine MAPCs. As to the kind of experiment: Immunohistochemistry of MAPCs treated with BIO. Type of assay: cell-based, mouse.
The subject of assay [4] is mouse embryonic stem (ES) cells. To be noted: substitutes for feeder cultures or exogenous cytokines; expression of Oct-3a, Rex-1 and Nanog; cited from earlier work.
Assay [5] has as its system human embryonic stem (ES) cells. Particulars: substitutes for feeder cultures or exogenous cytokines; expression of Oct-3a, Rex-1 and Nanog; cited from earlier work.
Assay [6] has as its system GSK-3 (α/β) mixture of isoforms. Particulars: cited from earlier work.
For another assay, the target named is GSK-3β (Homo sapiens, UniProt P49841).
In assay [7] the test system is mouse mesodermal stem cell line differentiated into a myoblastic lineage. To be noted: Chen, S., et al. (2003); cited from earlier work.
The next assay addresses GSK-3α (Homo sapiens, UniProt P49840). To be noted: cited from earlier work.
The mark [8] stands for this setting: MAPCs maintained at low density.
The mark [9] stands for this setting: high concentration of BIO, MAPCs maintained at low density.
Setting [10] is: mixture of isoforms tested, values marked a: L. Meijer et al., unpublished.

GSK-3β, sequence (P49841 whole entry, species assumed): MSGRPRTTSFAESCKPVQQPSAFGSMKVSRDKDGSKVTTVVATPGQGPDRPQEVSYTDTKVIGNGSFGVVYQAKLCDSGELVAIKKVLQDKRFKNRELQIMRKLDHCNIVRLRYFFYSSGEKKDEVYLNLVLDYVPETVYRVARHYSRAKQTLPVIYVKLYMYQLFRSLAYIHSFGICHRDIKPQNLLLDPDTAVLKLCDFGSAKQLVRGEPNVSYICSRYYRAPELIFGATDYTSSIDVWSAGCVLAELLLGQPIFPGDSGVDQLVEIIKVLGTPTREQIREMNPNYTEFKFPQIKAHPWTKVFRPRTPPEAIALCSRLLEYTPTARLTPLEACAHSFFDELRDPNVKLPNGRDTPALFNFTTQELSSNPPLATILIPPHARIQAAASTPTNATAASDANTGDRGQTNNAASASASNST
GSK-3α, sequence (P49840 whole entry, species assumed): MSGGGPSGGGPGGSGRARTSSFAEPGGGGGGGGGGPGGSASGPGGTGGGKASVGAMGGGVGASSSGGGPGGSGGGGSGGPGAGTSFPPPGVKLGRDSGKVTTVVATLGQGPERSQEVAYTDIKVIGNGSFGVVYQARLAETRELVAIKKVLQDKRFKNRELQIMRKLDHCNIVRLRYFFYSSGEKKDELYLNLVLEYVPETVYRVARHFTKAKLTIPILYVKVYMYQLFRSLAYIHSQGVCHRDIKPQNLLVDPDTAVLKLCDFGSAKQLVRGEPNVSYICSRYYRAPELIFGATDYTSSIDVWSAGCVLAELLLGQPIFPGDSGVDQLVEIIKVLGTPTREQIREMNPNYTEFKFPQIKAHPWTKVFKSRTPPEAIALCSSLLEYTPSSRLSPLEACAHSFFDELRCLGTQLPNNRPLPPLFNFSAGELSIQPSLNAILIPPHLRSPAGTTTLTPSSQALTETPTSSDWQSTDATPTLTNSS

In the case of `CC(=O)ON=C1C(=C2C(=O)Nc3cc(Br)ccc32)Nc2ccccc21` [6-Bromoindirubin-3′-acetoxime], the 50% inhibitory concentration (IC50) in the assay on GSK-3 was 10 nM; with CDK1-cyclin B complex it was 63000 nM.
Consider `COc1ccc(CNC(=O)Nc2ncc([N+](=O)[O-])s2)cc1` [ARA014418], for which, in the assay on CDK2 and CDK5, the IC50 is above 100000 nM.
As to `CCCCc1c(-c2ccc(O)cc2)[nH]c2nccnc12` [Aloisine A], the IC50 with GSK-3 is […].
On to `O=C1Cc2c([nH]c3ccc(Br)cc23)-c2ncccc2N1` [Azakenpaullone], for which the half-maximal inhibitory concentration (IC50) in the assay on CDK1-cyclin B complex was 2000 nM.
With `O=C1Nc2cc(Br)ccc2/C1=C1/Nc2ccccc2/C1=N\O` [BIO, 6-bromoindirubin-3′-oxime], the “clustering of MAPC” value in the assay with Murine MAPCs [1] is recorded as “dose-dependent clustering”. Besides, in the assay on Murine MAPCs [2] (setting [8]), the “Oct-4 mRNA levels” value is recorded as “decreased in a BIO dose-dependent manner” and the “Rex-1 mRNA levels” value is given as “decreased in a BIO dose-dependent manner”. Moreover, in the assay on Murine MAPCs [2] (setting [9]), the AFP levels result is “higher levels of AFP” and the Sox1 levels result is recorded as “higher levels”. Moreover, the “endothelial specific genes (for example, vWF) levels” value in the assay on Murine MAPCs [2] (low concentration of BIO, MAPCs maintained at low density) is on record as “higher levels of endothelial specific genes”. The “UTF1 or E-Ras expression” value in the assay with Murine MAPCs [2] (mRNA, Q-RT-PCR) was “did not affect”. In addition, the “Oct-4, β-catenin and E-cadherin protein expression in large dense MAPC clusters” value with Murine MAPCs [3] (high density (ESC densities), 1 or 2 microM BIO) is listed as “very high levels”. Further, the “Oct-4, β-catenin and E-cadherin protein expression in clusters” value with Murine MAPCs [3] (low-density MAPCs, 2 microM BIO) is reported as “highly expressed”. Also, the “maintenance of undifferentiated pluripotent state, mouse ES cells” value in assay [4] is given as “maintaining the ES cultures in an undifferentiated pluripotent state”. In addition, the “maintenance of undifferentiated pluripotent state, human ES cells” value in assay [5] is given as “maintaining the ES cultures in an undifferentiated pluripotent state”.
As for `[Be+2]` [Beryllium], in the assay on GSK-3, the IC50 was 6000 nM. Besides, the “Effect on CDK1-cyclin B complex” value in the assay with CDK1-cyclin B complex is “Inhibits CDK1”.
Take `OCCCNc1cc(-c2ccnc(Nc3cccc(Cl)c3)n2)ccn1` [CGP60474]: the IC50 with GSK-3 was 10 nM.
As to `CN1CCN(c2cnc(NCCNc3ccc([N+](=O)[O-])c(N)n3)nc2-c2ccc(Cl)cc2Cl)C(=O)C1` [CT20026], the IC50 in assay [6] (setting [10]) is 4 nM.
For `CN1CC[C@H](c2c(O)cc(O)c3c(=O)cc(-c4ccccc4Cl)oc23)[C@H](O)C1` [Flavopiridol], in the assay with GSK-3, the half-maximal inhibitory concentration (IC50) was 450 nM.
With `CN(C)CCCn1cc(C2=C(c3c[nH]c4ccccc34)C(=O)NC2=O)c2ccccc21` [GF109203x, bisindolyl-maleimide I], the half-maximal inhibitory concentration (IC50) at GSK-3β (β isoform tested; from Meijer, L. et al. (2004); read-out: IC50 GSK-3 (β); cited from earlier work) is 190 nM; with CDK1-cyclin B complex, 2300 nM.
Regarding `Cn1cc(C2=C(c3cn(CCCSC(=N)N)c4ccccc34)C(=O)NC2=O)c2ccccc21` [Ro318220, bisindolyl-maleimide IX], the half-inhibitory concentration (IC50) at GSK-3β (read-out: IC50 GSK-3 (β); β isoform tested; from Meijer, L. et al. (2004); cited from earlier work) was 3 to 38 nM.
In the case of `Cn1cc(C2=C(c3ccc(Cl)cc3Cl)C(=O)NC2=O)c2ccccc21` [SB216763], the IC50 with CDK1-cyclin B complex is 550 nM.
With `O=C1NC(=O)C(c2ccccc2[N+](=O)[O-])=C1Nc1ccc(O)c(Cl)c1` [SB415286], the concentration for half-maximal inhibition (IC50) with CDK1-cyclin B complex was 900 nM.
With `COc1ccc2c(c1)/C(=C/c1cnc[nH]1)C(=O)N2` [SU9516], in the assay on GSK-3, the IC50 is 330 nM.
As to `Cn1sc(=O)n(Cc2ccccc2)c1=O` [TDZD8], the IC50 in [6] (setting [10]) is 7000 nM.
Regarding `Nc1cccc(-c2cc3c(Oc4cccc(O)c4)ncnc3[nH]2)c1` [TWS119], the IC50 at GSK-3β (read-out: IC50 GSK-3 (β); cited from earlier work) is 30 nM.
Regarding `[Zn]` [Zinc], in the assay with GSK-3, the IC50 is 15000 nM. In the assay with CDK1-cyclin B complex, the “Effect on CDK1-cyclin B complex” value was “No effect”.
For the compound `c1nc2nc(Nc3ccc(N4CCOCC4)cc3)nc(NC3CCCCC3)c2[nH]1` [reversine], in assay [7], the “effect on committed myoblast” value is given as “de-differentiate”.
Turning to Aloisine B, the IC50 in the assay with GSK-3 is 750 nM; with CDK1-cyclin B complex, 850 nM.
With CHIR98014, the values for the IC50 (at GSK-3α; in [6]; in the assay on CDK1-cyclin B complex) were 0.65 nM, 0.58 nM and 3700 nM, respectively.
